# Reference: publication PMC10786692 (The Journal of Clinical Investigation, 2024)
# Where “and” joins values, the source holds several entries; their conditions need not be identical. Equal values may be shown once.
# Tests used:
# advanced solid tumors = test: Antitumor response by RECIST 1.1 and duration on study; assay type: in vivo, human; settings: for Patients with PR: 40 mg BD or more
# [1] = tested on: peripheral blood immune cells; test: Flow cytometry immune profiling of peripheral blood; assay type: in vivo, human
# Description: DNA-Seq of tumor and matched buffy coats was either by whole-exome sequencing or a custom-designed panel targeting all exons of genes of interest for 173 genes, including potential markers of sensitivity to ATRi. ACK-lysed whole blood or PBMCs were stained for flow cytometry using 8 multicolor panels. Plasma cytokines were assessed using the Bio-Plex Pro 27-Plex Panel (Bio-Rad). See Supplemental Methods for full information. […]
# Peripheral blood was drawn into 8 mL EDTA tubes (Vacutainer, BD) and analyzed within 24
# hours. ACK-lysed whole blood (for myeloid panel) or PBMC from density gradient centrifugation
# (for lymphocyte panel) were used. Samples were surface-stained with antibodies for 30 mins at
# 4 OC. Samples were analyzed on a LSR Fortessa (BD Biosciences). FACS analyses were
# CD56 PE-Dazzle 594 Biolegend
# CD62L PerCp Cy5.5 Biolegend
# NKp30 PerCp Cy5.5 Biolegend
# TIGIT PerCp Cy5.5 eBioscience
# CD45RO Pacific Blue Biolegend
# CTLA-4 PE-Dazzle 594 Biolegend
# CD57 PerCp Cy5.5 Biolegend
# CD38 PE-Dazzle 594 Biolegend
# CD11b ICRF44 PE Biolegend
# HLA-DR L243 PerCP Cy5.5 Biolegend
# CD16 3G8 APC-C7 Biolegend
# tumor biopsies [2] = test: CIBERSORTx cell-type deconvolution of tumor biopsy RNA-Seq; assay type: in vivo, human; settings: individual patients
# Description: signatures for heatmap construction were used from MSigDB (49) and cell-type-related
# transcripts from NanoString annotations and Bindea et al (50). Cell-type deconvolution was
# performed using CIBERSORTx (51). […]
# tumor biopsies [3] = test: RNA-Seq differential gene expression / GSEA of paired tumor biopsies; assay type: in vivo, human; settings: after 2 weeks of ceralasertib
# Description: Eight paired tumor biopsies were analyzed from 3 patients with PR, 4 with SD, and 1 NE, treated at various dose levels. Additional baseline samples were also available for 1 PR and 1 SD. When all samples were considered together, there were few differences in differential gene expression between baseline and on-treatment biopsies (Figure 5A). However, when responders (PR) were compared with nonresponders (SD), there were marked differences in both baseline and on-treatment gene expression (Figure 5, B–E) with clustering of a number of differentially expressed genes according to response (Supplemental Figure 8). […]
# Formalin fixed paraffin-embedded tumor samples were used. […] H-score was calculated using HALO image analysis (Indica Labs). […] Nuclear ATM (Abcam 32420) IHC staining was carried out on the Ventana autostainer, using DAB detection and assessed by H-score, but samples were only deemed acceptable if lymphocyte staining (internal control) was at least 2+ (moderate) intensity. Cyclin E1 (Invitrogen HE12) staining was carried out on the Ventana autostainer, using DAB detection and the H-score was quantified using HALO image analysis (Indica Labs). Ki67 (Mib-1, Dako M7240) was scored by percent nuclear positivity using a global unweighted method, scoring 4 areas of 100 cells. […] Quantification of tumor-infiltrating lymphocytes was done using a semi-automated method in QuPath (53). […]
# [4] = preclinical monotherapy; cited from earlier work
structure (smiles),measurement,setting,value
C[C@@H]1COCCN1c1cc(C2([S@](C)(=N)=O)CC2)nc(-c2cc[nH]c3nccc2-3)n1 [ceralasertib],Patients with PR,"advanced solid tumors; mutation of interest, 4 of 30",13%
same,Patients with PR,"advanced solid tumors; no mutation of interest, 1 of 11",9%
same,"Progressive disease, n (%)","advanced solid tumors; 160 mg BD or more, n = 49",15 (30%)
same,Median duration on treatment,"advanced solid tumors; 4 ATM-low patients, range 8–29",13 weeks
same,Patients deriving clinical benefit,advanced solid tumors; 11 patients with oncogene-driven tumors,3
same,"Best overall response: progressive disease incl. clinical progression, n (%)",advanced solid tumors; 66 evaluable patients,27 (41%)
same,"Best overall response: stable disease incl. 1 unconfirmed PR, n (%)",advanced solid tumors; 66 evaluable patients,34 (52%)
same,"Best overall response: confirmed partial responses, n (%)","advanced solid tumors; 66 evaluable patients, 20–240 mg BD",5 (8%)
same,Duration,"advanced solid tumors; ARID1A E1387X, lobular breast carcinoma",42 days
same,Duration,"advanced solid tumors; ARID1A Q1188X, ovarian clear cell",275 days
same,Duration,"advanced solid tumors; ARID1A R693*, eccrine adenocarcinoma",240 days
same,Duration,"advanced solid tumors; ARID1A S1623L, cervix adenocarcinoma",203 days
same,Duration,"advanced solid tumors; ARID2 Y854fs, SCCHN",697 days
same,Tumor shrinkage,advanced solid tumors; ARID2 frameshift-bearing HNSCC,29%
same,Patients experiencing SD,advanced solid tumors; ATM-low patients,3 of 4
same,Best response,"advanced solid tumors; CCNE1 amplification, peritoneal carcinoma, 20 mg BD",progressive disease
same,Duration on study with SD,"advanced solid tumors; CCNE1 amplification, serous endometrial carcinoma",12 weeks
same,Duration of RECIST SD / on study,advanced solid tumors; HNSCC with ARID2 frameshift,99 weeks
same,Duration of RECIST SD,advanced solid tumors; HNSCC with CCND1 amplification,49 weeks
same,Duration on study,"advanced solid tumors; HNSCC, MRE11 and CDKN2A mutation","1,194 days"
same,Duration on study,"advanced solid tumors; HNSCC, RECIST PR, 40 mg BD",106 days
same,Duration of RECIST SD,"advanced solid tumors; HNSCC, no sequencing available",48 weeks
same,Duration on study with confirmed PR,advanced solid tumors; MRE11 stop-gain R633X with CDKN2A stop-gain,more than 32 months
same,Duration,"advanced solid tumors; PBRM S295*, SCCHN",112 days
same,Median duration of response,"advanced solid tumors; PR or SD, with a mutation of interest",185.5 days
same,Median duration of response,"advanced solid tumors; PR or SD, without a mutation of interest",105 days
same,Duration of response,"advanced solid tumors; PR, HNSCC with APC frameshift and TP53 mutation, 40 mg BD",15 weeks
same,Duration of response,"advanced solid tumors; PR, HNSCC with CDKN2A and MRE11A frameshift, 160 mg BD, remains on study",170 weeks
same,Duration of response,"advanced solid tumors; PR, esophageal squamous cell carcinoma, HR/Fanconi deficiency, 160 mg BD",47 weeks
same,Duration of response,"advanced solid tumors; PR, nasopharyngeal carcinoma, NRAS activating mutation, 240 mg BD",14 weeks
same,Duration of response,"advanced solid tumors; PR, ovarian clear cell carcinoma, ARID1A mutation, 160 mg BD, remains on study",251 weeks
same,Median duration of response,"advanced solid tumors; RECIST PR patients, IQR 14.9–251.0",46.7 weeks
same,Duration of RECIST SD,advanced solid tumors; digital papillary adenocarcinoma with TP53 mutation,51 weeks
same,Duration of SD,"advanced solid tumors; eccrine adenocarcinoma, ARID1A R693X, CDKN2A deletion, 240 mg BD",34 weeks
same,Duration on study,"advanced solid tumors; esophageal squamous cell carcinoma, RECIST PR, 160 mg BD intermittent",575 days
same,Duration of SD,"advanced solid tumors; increased cyclin E1 by IHC, cervical adenocarcinoma",29 weeks
same,Duration of SD,"advanced solid tumors; increased cyclin E1 by IHC, serous endometrial carcinoma, germline BRCA1 mutation",16 weeks
same,Duration on study,"advanced solid tumors; nasopharyngeal carcinoma, NRAS activation, RECIST PR, 240 mg BD",341 days
same,Duration on study,"advanced solid tumors; pancreatic adenocarcinoma, unconfirmed PR, 160 mg BD intermittent",480 days
same,Duration on study with SD,advanced solid tumors; pathogenic ATM mutation R1898fsX with coexisting ARID1A mutation,39 weeks
same,Participants deriving clinical benefit,advanced solid tumors; seven participants with SWI/SNF pathway aberrations,6
same,Duration of response,"advanced solid tumors; unconfirmed PR, TP53 mutant pancreatic adenocarcinoma, 160 mg BD",15 weeks
same,CD8+ T cells in peripheral blood,[1]; 160 mg BD intermittent,trend toward increased
same,Classical and intermediate monocytes,[1]; 160 mg BD intermittent,reduction
same,Granulocytic MDSCs (gMDSC),[1]; 160 mg BD intermittent,increased
same,Monocytic MDSCs (mMDSCs),[1]; 160 mg BD intermittent,reduced
same,Naive and central memory CD8+ and CD4+ T cells,[1]; 160 mg BD intermittent,increased
same,PD-1–positive CD8+ T cells,[1]; 160 mg BD intermittent,reduction
same,Tregs in peripheral blood,"[1]; 160 mg BD intermittent, 8 participants",reduction
same,Memory CD4-TEMRA cells,[1]; day 29,increased frequencies
same,NKG2A- and CD69-positive NK cells,[1]; normalized after the 2-week break,trend toward increased
same,"CIBERSORTx proportion CD8, on-treatment tumor biopsy",tumor biopsies [2]; D15 PR,0
same,"CIBERSORTx proportion M0 Mac, on-treatment tumor biopsy",tumor biopsies [2]; D15 PR,0.1391 and 0.5318 and 0.5438
same,"CIBERSORTx proportion M1 Mac, on-treatment tumor biopsy",tumor biopsies [2]; D15 PR,0.1372 and 0 (2×)
same,"CIBERSORTx proportion M2 Mac, on-treatment tumor biopsy",tumor biopsies [2]; D15 PR,0.1138 and 0.03909 and 0.06393
same,"CIBERSORTx proportion Naive B, on-treatment tumor biopsy",tumor biopsies [2]; D15 PR,0.01104 and 0.04034 and 0
same,"CIBERSORTx proportion Naive CD4, on-treatment tumor biopsy",tumor biopsies [2]; D15 PR,0 and 0.0004844 and 0.004743
same,"CIBERSORTx proportion Neutrophils, on-treatment tumor biopsy",tumor biopsies [2]; D15 PR,0.03549 and 0.1415 and 0.09333
same,"CIBERSORTx proportion Treg, on-treatment tumor biopsy",tumor biopsies [2]; D15 PR,0
same,"CIBERSORTx proportion active DC, on-treatment tumor biopsy",tumor biopsies [2]; D15 PR,0.02084 and 0.01306 and 0.1026
same,"CIBERSORTx proportion active NK, on-treatment tumor biopsy",tumor biopsies [2]; D15 PR,0.09471 and 0 (2×)
same,"CIBERSORTx proportion resting DC, on-treatment tumor biopsy",tumor biopsies [2]; D15 PR,0
same,"CIBERSORTx proportion resting NK, on-treatment tumor biopsy",tumor biopsies [2]; D15 PR,0 and 0.07254 and 0.04433
same,"CIBERSORTx proportion CD8, on-treatment tumor biopsy",tumor biopsies [2]; D15 non-PR,0 (3×) and 0.09128
same,"CIBERSORTx proportion M0 Mac, on-treatment tumor biopsy",tumor biopsies [2]; D15 non-PR,0.07738 and 0.2479 and 0.5291 and 0.2524
same,"CIBERSORTx proportion M1 Mac, on-treatment tumor biopsy",tumor biopsies [2]; D15 non-PR,0 (2×) and 0.002883 and 0.04168
same,"CIBERSORTx proportion M2 Mac, on-treatment tumor biopsy",tumor biopsies [2]; D15 non-PR,0.325 and 0.00838 and 0.1257 and 0.0276
same,"CIBERSORTx proportion Naive B, on-treatment tumor biopsy",tumor biopsies [2]; D15 non-PR,0 (2×) and 0.07794 and 0.002559
same,"CIBERSORTx proportion Naive CD4, on-treatment tumor biopsy",tumor biopsies [2]; D15 non-PR,0
same,"CIBERSORTx proportion Neutrophils, on-treatment tumor biopsy",tumor biopsies [2]; D15 non-PR,0 (2×) and 0.09632 and 0.04836
same,"CIBERSORTx proportion Treg, on-treatment tumor biopsy",tumor biopsies [2]; D15 non-PR,0 (2×) and 0.01681 and 0.03886
same,"CIBERSORTx proportion active DC, on-treatment tumor biopsy",tumor biopsies [2]; D15 non-PR,0.01626 and 0.04266 and 0 (2×)
same,"CIBERSORTx proportion active NK, on-treatment tumor biopsy",tumor biopsies [2]; D15 non-PR,0.08744 and 0 (2×) and 0.005269
same,"CIBERSORTx proportion resting DC, on-treatment tumor biopsy",tumor biopsies [2]; D15 non-PR,0 (3×) and 0.002776
same,"CIBERSORTx proportion resting NK, on-treatment tumor biopsy",tumor biopsies [2]; D15 non-PR,0 and 0.1019 and 0.06313 and 0.04038
same,"Inflammatory response genes (GSEA), on-treatment versus baseline tumor samples",tumor biopsies [3],enrichment
same,GI50,[4],~1 µM
